System: DNA nanospheres prepared by using E. coli sequencing library
Assay: Evaluation of blocking effect (incorporation and cleavage efficiency) on MGISEQ2000 sequencer
Format: biochemical
Settings: for Cleavage efficiency (EC): ratio of Cleavage efficiency values for testing nucleotide and comparative nucleotide, thpp reagent, 65° C. 1 min, dTTP analogue; for Incorporation efficiency (EI): ratio of Incorporation efficiency values for testing nucleotide and comparative nucleotide (standard cold dNTP), dTTP analogue as cold dNTP
Protocol: 1. Evaluation of Blocking Effect
For each test, only one of the nucleotide analogues cold dNTP of the invention (dTTP, dATP, dCTP, and dGTP) was used. For ease of presentation, only testing results for dTTP were provided in the following table 1 for each kind of 3′-OH modification.
Sequencing was conducted according to the operation protocol of MGISEQ2000 sequencer, using the above nucleotide substrates and MGISEQ-2000RS high-throughput sequencing kit (FCL SE50).
(1) Preparing DNA nanospheres by using E. coli sequencing library;
(2) Loading DNA nanospheres onto the MGISEQ2000 sequencing chip;
(3) Amounting the loaded sequencing chip onto the MGISEQ2000 sequencer and set the sequencing process;
(4) Performing Test Round 1: incorporating standard hot dNTP, taking photos for recording signal value, and then cleaving the blocking group with thpp reagent, 65° C. 1 min.
(5) Performing Test Round 2: incorporating standard cold dNTP, then incorporating standard hot dNTP, taking photos for recording signal value, and then cleaving blocking group with thpp reagent, 65° C. 1 min.
(6) Performing Test Round 3: incorporating standard hot dNTP, taking photos for recording signal value, and then cleaving blocking group with thpp reagent, 65° C. 1 min.
(7) Performing Test Round 4: incorporating nucleotide analogues cold dNTP of the invention (only one kind of cold dNTP incorporated for each test), then incorporating standard hot dNTP, taking photos for recording signal value, and then cleaving blocking group with thpp reagent, 65° C. 1 min.
(8) Performing Test Round 5: incorporating standard hot dNTP, taking photos for recording signal value.
(9) Evaluating Incorporation efficiency and Cleavage efficiency.
Equation for Calculating Incorporation Efficiency: […]
wherein: • EI (Incorporation efficiency) is the ratio of Incorporation efficiency values for testing nucleotide and comparative nucleotide; • C1 is signal value of Test Round 1; • C2 is signal value of Test Round 2; • C3 is signal value of Test Round 3; • C4 is signal value of Test Round 4;
Equation for Calculating Cleavage Efficiency: […]
wherein: • Ec (Cleavage efficiency) is the ratio of Cleavage efficiency values for testing nucleotide and comparative nucleotide; • EI is the ratio of Incorporation efficiency values for testing nucleotide and comparative nucleotide; • C3 is signal value of Test Round 3; • C5 is signal value of Test Round 5; • CGT is the signals of base C, base G and base T in Test Round 3.

SMILES | Cleavage efficiency (EC) | Incorporation efficiency (EI)
Cc1cn([C@H]2CC(OC(=O)c3cccnc3C(C)N=[N+]=[N-])[C@@H](COP(=O)(O)OP(=O)(O)OP(=O)(O)O)O2)c(=O)[nH]c1=O (stereo partly shown) | 115% | 100%
Cc1cn([C@H]2CC(OC(=O)c3ccccc3CN=[N+]=[N-])[C@@H](COP(=O)(O)OP(=O)(O)OP(=O)(O)O)O2)c(=O)[nH]c1=O (stereo partly shown) | 91% | 98%
CCSSC(C)c1ccccc1C(=O)OC1C[C@H](n2cc(C)c(=O)[nH]c2=O)O[C@@H]1COP(=O)(O)OP(=O)(O)OP(=O)(O)O (stereo partly shown) | 110% | 100%
Cc1cn([C@H]2CC(OC(=O)CCCN=[N+]=[N-])[C@@H](COP(=O)(O)OP(=O)(O)OP(=O)(O)O)O2)c(=O)[nH]c1=O (stereo partly shown) | 36% | 95%
Cc1cn([C@H]2CC(OC(=O)c3ccccc3C(C)SSC(C)C)[C@@H](COP(=O)(O)OP(=O)(O)OP(=O)(O)O)O2)c(=O)[nH]c1=O (stereo partly shown) | 103% | 95%
Cc1cn([C@H]2CC(OC(=O)c3ccc([N+](=O)[O-])cc3CN=[N+]=[N-])[C@@H](COP(=O)(O)OP(=O)(O)OP(=O)(O)O)O2)c(=O)[nH]c1=O (stereo partly shown) | 112% | 101%
Cc1cn([C@H]2CC(OC(=O)Cc3ccccc3C(C)N=[N+]=[N-])[C@@H](COP(=O)(O)OP(=O)(O)OP(=O)(O)O)O2)c(=O)[nH]c1=O (stereo partly shown) | 91% | 98%
Cc1cn([C@H]2CC(OC(=O)c3cccnc3C(C)(C)N=[N+]=[N-])[C@@H](COP(=O)(O)OP(=O)(O)OP(=O)(O)O)O2)c(=O)[nH]c1=O (stereo partly shown) | 110% | 95%
Cc1cn([C@H]2CC(OC(=O)c3occc3CN=[N+]=[N-])[C@@H](COP(=O)(O)OP(=O)(O)OP(=O)(O)O)O2)c(=O)[nH]c1=O (stereo partly shown) | 5% | 101%
Cc1cn([C@H]2CC(OC(=O)c3ccccc3C(C)N=[N+]=[N-])[C@@H](COP(=O)(O)OP(=O)(O)OP(=O)(O)O)O2)c(=O)[nH]c1=O (stereo partly shown) | 105% | 101%
CSSC(C)c1cc(NC(C)=O)ccc1C(=O)OC1C[C@H](n2cc(C)c(=O)[nH]c2=O)O[C@@H]1COP(=O)(O)OP(=O)(O)OP(=O)(O)O (stereo partly shown) | 98% | 100%
Cc1cn([C@H]2CC(OC(=O)c3ccccc3C(C)SSCC(C)C)[C@@H](COP(=O)(O)OP(=O)(O)OP(=O)(O)O)O2)c(=O)[nH]c1=O (stereo partly shown) | 98% | 90%
Cc1cn([C@H]2CC(OC(=O)Cc3ccccc3CN=[N+]=[N-])[C@@H](COP(=O)(O)OP(=O)(O)OP(=O)(O)O)O2)c(=O)[nH]c1=O (stereo partly shown) | 89% | 95%
COc1ccc(C(=O)OC2C[C@H](n3cc(C)c(=O)[nH]c3=O)O[C@@H]2COP(=O)(O)OP(=O)(O)OP(=O)(O)O)c(C(C)N=[N+]=[N-])c1 (stereo partly shown) | 98% | 101%
CSSC(C)c1ccccc1C(=O)OC1C[C@H](n2cc(C)c(=O)[nH]c2=O)O[C@@H]1COP(=O)(O)OP(=O)(O)OP(=O)(O)O (stereo partly shown) | 111% | 100%
Cc1cn([C@H]2CC(OC(=O)c3ccccc3CCN=[N+]=[N-])[C@@H](COP(=O)(O)OP(=O)(O)OP(=O)(O)O)O2)c(=O)[nH]c1=O (stereo partly shown) | Incorporation efficiency (EI) 100% Cleavage efficiency (EC) 100% | Incorporation efficiency (EI) 100% Cleavage efficiency (EC) 100%
COc1ccc(C(=O)OC2C[C@H](n3ccc(N)nc3=O)O[C@@H]2COP(=O)(O)OP(=O)(O)OP(=O)(O)O)c(C(C)SSC)c1 (stereo partly shown) | 101% | 104%
